The subject of this assay is HpFT-2 (Helicobacter pylori α1,3 fucosyltrasferase). In words: Conversion efficiency of α1,3 fucosyltrasferase towards GDP-fucose derivatives with different jointer on the antibodies (LC-MS). To be noted: substrate 1 mM, HpFT-2 0.5 mg/mL. It counts as biochemical. The method, then:
Trastuzumab-(GalNAzβ1,4)GlcNAc (2 mg/mL) was incubated with GDP-FAzP4Biotin (1 mM) or GDP-FAmP4Biotin (1 mM) and HpFT-2 (0.5 mg/mL) in 50 mM Tris-HCl buffer (pH 7.5) with 5 mM MgCl2 at 30° C. for 2 hours. […] The reaction mixtures were then quenched by adding LacNAc (final concentration 10 mM) and purified with protein A resin and analyzed by LC-MS respectively.

Setting [1] is: antibody Trastuzumab-(Fucα1,6)(Galβ1,4)GlcNAc 2 mg/mL, reaction time 10 min, average MAR/2*100%.
The mark [2] stands for this setting: antibody Trastuzumab-(GalNAzβ1,4)GlcNAc 2 mg/mL, reaction time 2 h, average MAR/2*100%.
The mark [3] stands for this setting: antibody Trastuzumab-(Galβ1,4)GlcNAc 2 mg/mL, reaction time 10 min, average MAR/2*100%.

Structures are written as SMILES.

Regarding `Nc1nc2c(ncn2[C@@H]2O[C@H](COP(=O)(O)OP(=O)(O)O[C@H]3OC(Cn4cc(COCCOCCOCCOCCNC(=O)CCCC[C@@H]5SC[C@@H]6NC(=O)N[C@@H]65)nn4)[C@@H](O)[C@H](O)C3O)C(O)[C@@H]2O)c(=O)[nH]1` (stereo partly shown) [GDP-FAzP4Biotin], the “% of conversion” value runs as follows: under setting [1], 30 ± 4.6%; under setting [2], 13 ± 4.7%; under setting [3], 60 ± 0.6%; (antibody Trastuzumab-G2F 2 mg/mL, reaction time 2 h, average MAR/4*100%) 9 ± 1.2%.

Consider `Nc1nc2c(ncn2[C@@H]2O[C@H](COP(=O)(O)OP(=O)(O)O[C@H]3OC(CNC(=O)CCOCCOCCOCCOCCNC(=O)CCCC[C@@H]4SC[C@@H]5NC(=O)N[C@@H]54)[C@@H](O)C(O)C3O)C(O)C2O)c(=O)[nH]1` (stereo partly shown) [GDP-FAmP4Biotin], for which the “% of conversion” value under setting [1] stood at 42 ± 5.3%, the “% of conversion” value under setting [2] is 77 ± 5.0% and the “% of conversion” value under setting [3] turned out to be 83 ± 1.2%.

(Values after patent US20250222124A1, “PROTEIN CONJUGATES WITH MULTIPLE PAYLOADS AND METHODS FOR MAKING THE SAME” (GLYCO-THERAPY BIOTECHNOLOGY CO., LTD., priority 2022, published 2025).)
